Data set [1] relates to veligers of quagga mussels. The data set can be described thus: Efficiency in killing mollusk veligers, beaker exposure. The following applies: approximately 20° C. On the procedure:
Further testing was conducted specifically on veligers of quagga mussels collected from Lake Mead and utilizing citric acid and L-lactic acid. Trials were conducted using 2 replicate beakers per test interval at approximately 20° C. Test beakers (100 mL) were seeded with at least 200 veligers per replicate in 10 mL of veliger concentrate and filtered lake water and then dosed with 90 mL of prepared acid concentrate for each of the tested concentrations of lactic acid or citric acid. Stock acid solutions were measured by weight and added to filtered lake water to make the total volume needed. Controls were run concurrently with treatments and used filtered lake water instead of acid to add into the beaker. Exposure times included 1, 5, and 15 minutes, and 1 and 24 hours to assess mortality for the different concentrations of acids.
The exposure times were 5 minutes, 15 minutes, one hour, and 24 hours.
In the second test, the final concentrations of citric acid and L-lactic acid were 1% and 2% by weight for each acid. The exposure times were one minute and 5 minutes.

For data set [2], the system named is adult dreissenid mussels. The data set can be described thus: Effective pH range determination, adult mussel mortality in pH-adjusted raw lake water. On the procedure: To find an optimal pH range at which lactic acid effectively killed adult dreissenid mussels, raw lake water was placed in 4 L water containers and aerated. The pH was adjusted in three containers to about 2.8, 4, and 6, respectively, using lactic acid. The initial water parameters (temperature 20° C., pH 7.6, dissolved oxygen (DO) 7.73, Alkalinity 90 mg/l) were monitored. A fourth container, with no pH adjustment was used for control. Twenty adult mussels of various sizes were placed in each of the three containers. […] Mortality was defined as a gaping shell with the adult mussel not responding to gentle prodding of the flesh.
The experiment was repeated with the pH adjusted to about 5.

The subject of data set [3] is adult dreissenid mussels. As to conditions: pH about 4, warm water, after 72 hours.

Where two headings read alike, the source gives them in different places.

As for `C[C@H](O)C(=O)O` [L-lactic acid], the veliger mortality in data set [1] (0.6% by weight, one hour exposure) is 99%; in data set [1] (2% by weight, five minute exposure), 86%.
What is called mortality is the percentage killed. A high value points to a strong lethal effect. Take `CC(O)C(=O)O` (stereo not drawn) [lactic acid]: the mortality is listed as 100% in the data set on adult dreissenid mussels [2] (in vivo, pH 4); “no mortality” with adult dreissenid mussels [2] (pH of 6, after 48 hours); “complete mortality” in the data set on adult dreissenid mussels [3]. Besides, the shell condition result in the data set with adult dreissenid mussels [2] (pH 2.8, after 48 hours) is given as “shells were disintegrating”.

The record behind these values is patent US20190202719A1, “METHOD FOR CONTROLLING MOLLUSK POPULATIONS” (priority 2016, published 2019).
